Among the data in ChEMBL document CHEMBL1128302, “Synthesis, absolute configuration, and enantioselectivity of antiretroviral effect of (R)-(-)- and (S)-(+)-cytallene. Lipase-catalyzed enantioselective acylations of (+/-)-N4-acylcytallenes” (J Med Chem, 1995) are IC50 and IC90 values, retold here.

Some results are limits rather than exact numbers.

What is called IC50 is the concentration that inhibits the measured activity by half. Usually IC90 stands for the concentration at which the effect reaches the 90% level. Low values mean an effect from little substance, high ones a need for much substance.

This assay can be described thus: Inhibitory activity against HIV-1 replication in phytohemagglutininin-activated peripheral blood mononuclear (PHA-PBM) cells. Type of assay: functional, Homo sapiens.

In the case of `Nc1ccn(C=C=CCO)c(=O)n1` (stereo in doubt; 1b), the IC50 came out at 800 nM and the IC90 stood at 3400 nM.

The compound `Nc1ccn(C=C=CCO)c(=O)n1` (stereo in doubt; 2b) displayed an IC50 of 400 nM. Also, the 90% effect level (Homo sapiens) (IC90) was put at 1700 nM.

The compound `Nc1ccn(C=C=CCO)c(=O)n1` (stereo in doubt; 3c) showed an IC50 above 10000 nM.
